Results on 19 compounds are retold here after patent US20130029970A1 (priority 2009, published 2013).

SMILES strings stand for the structures. Like-named read-outs stand apart in the source and are kept apart here.

For one assay, the target named is T1, human CB2 receptors (Homo sapiens, UniProt P34972).
T1 construct: (cDNA clone) CNR0200000
The assay can be described thus: cAMP assay in HEK-293 cells, hCB2 agonist. The assay is classed as cell-based. The essentials:
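HEK-293 cells stably expressing human CB2, suspended at 1,500,000 cells/mL in HBSS with 10 mM HEPES and 0.1% fatty-acid-free BSA, exposed to test compound plus forskolin (90 uM in the 3× compound solution) for 30 min at 37° C.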
(In general: cAMP levels reflect the balance of adenylyl cyclase and phosphodiesterase activity.)

For another assay, the target named is T2, human CB1 receptors (Homo sapiens, UniProt P21554).
T2 construct: (cDNA clone) CNR01L000
The assay can be described thus: cAMP assay in HEK-293 cells, hCB1 agonist. The conditions noted are these: inhibition of forskolin-stimulated cAMP, HEK-293 cells; for EC50: read-out: hCB1 EC50 (cAMP ag). The assay is classed as cell-based. The essentials:
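Stable hCB1 HEK-293 cells suspended in HBSS with 10 mM HEPES and 0.1% fatty acid-free BSA, incubated 30 min at 37° C. with compound plus forskolin (90 uM in the 3× compound solution). Lysed cAMP measured by enzyme-fragment kit; EC50 = 50% inhibition of forskolin-stimulated cAMP (forskolin maximum = 100%), sigmoidal fit.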

For a further assay, the target named is T3, human CB2 (hCB2) (Homo sapiens, UniProt P34972).
T3 construct: (cDNA clone) CNR0200000
The assay can be described thus: 35S GTPγS binding assay, hCB2 agonist. The assay is classed as biochemical. The method in brief: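 Membranes (5 μg) from cells transfected with hCB2 cDNA in pcDNA3.1+ incubated with SPA beads, 0.1 nM [35S]GTPγS and 20 uM GDP in 50 mM HEPES pH 7.4, 100 mM NaCl, 5 mM MgCl2, 0.001% saponin, ± test compound. Incubation 90 min at room temperature; bound label read by scintillation counting.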
A general note: Binding of GTPγS marks nucleotide exchange on a G protein.

Assay [1] concerns the target T4, recombinant human cannabinoid receptor CB2 (Homo sapiens, UniProt P34972).
T4 construct: (cDNA clone) CNR0200000
The experiment in a line: Cannabinoid receptor radioligand binding assay, [3H]-CP 55,940 displacement, hCB2. The method in brief: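 Membranes from hCB2-transfected cells, prepared by 1000×g then 40,000×g centrifugation, resuspended in 20 mM HEPES pH 7.4, 5 mM MgCl2, 1 mM EDTA, 10% sucrose.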

T2 sequence (P21554 whole entry): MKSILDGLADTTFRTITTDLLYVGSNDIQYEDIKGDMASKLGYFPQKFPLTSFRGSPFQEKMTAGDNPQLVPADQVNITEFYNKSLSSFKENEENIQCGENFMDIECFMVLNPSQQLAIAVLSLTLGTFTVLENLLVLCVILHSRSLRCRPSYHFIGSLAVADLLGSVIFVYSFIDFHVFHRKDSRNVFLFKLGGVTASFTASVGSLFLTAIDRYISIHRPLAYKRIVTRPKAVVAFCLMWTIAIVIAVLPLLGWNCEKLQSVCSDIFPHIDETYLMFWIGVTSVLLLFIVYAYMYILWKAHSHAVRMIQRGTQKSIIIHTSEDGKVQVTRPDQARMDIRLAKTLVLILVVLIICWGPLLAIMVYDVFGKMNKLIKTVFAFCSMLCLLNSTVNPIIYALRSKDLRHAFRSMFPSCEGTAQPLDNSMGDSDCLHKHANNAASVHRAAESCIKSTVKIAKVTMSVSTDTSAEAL
T3 sequence (P34972 whole entry): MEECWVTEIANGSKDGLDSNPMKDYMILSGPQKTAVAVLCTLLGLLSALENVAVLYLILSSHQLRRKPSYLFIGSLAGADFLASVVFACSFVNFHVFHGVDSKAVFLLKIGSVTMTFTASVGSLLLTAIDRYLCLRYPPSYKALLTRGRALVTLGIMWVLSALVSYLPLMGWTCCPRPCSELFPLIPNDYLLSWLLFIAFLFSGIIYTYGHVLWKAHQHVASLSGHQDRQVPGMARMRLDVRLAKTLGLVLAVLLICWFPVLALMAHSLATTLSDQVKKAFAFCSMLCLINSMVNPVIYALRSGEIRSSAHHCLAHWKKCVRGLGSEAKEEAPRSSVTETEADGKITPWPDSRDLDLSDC
T4 sequence (P34972 whole entry): as above
T1 sequence (P34972 whole entry): as above

`Cc1cc2cc(C(=O)c3ccc(OC(C)C)cc3)sc2n1CCN1CCOCC1` [Compound 111, (4-Isopropoxyphenyl)(5-methyl-6-(2-morpholinoethyl)-6H-thieno[2,3-b]pyrrol-2-yl)methanone]: the results for the EC50 on human CB2 receptors and at human CB2 (hCB2) were under 100 nM and 100 to 1000 nM, respectively. In addition, the “hCB1 EC50 (cAMP ag, nM)” value at human CB1 receptors was “NS (NS means “Not Significant,” which means less than 30% agonist activity when compared to the positive control.)”. Further, the IC50 in assay [1] lay in the range of 100 to 1000 nM.
On to `COc1ccc(C(=O)c2cc3cc(C)n(Cc4ccncc4)c3s2)cc1` [Compound 112, (4-Methoxyphenyl)(5-methyl-6-(pyridin-4-ylmethyl)-6H-thieno[2,3-b]pyrrol-2-yl)methanone], for which the concentration for a half-maximal effect (EC50) at human CB2 receptors and on human CB2 (hCB2) was 100 to 1000 nM each time. The “hCB1 EC50 (cAMP ag, nM)” value on human CB1 receptors is listed as “NS (NS means “Not Significant,” which means less than 30% agonist activity when compared to the positive control.)”. Also, the IC50 in assay [1] lay in the range of 100 to 1000 nM.
For the compound `COc1ccc(C(=O)c2cc3cc(C)n(S(=O)(=O)N(C)C)c3s2)cn1` [Compound 113, 2-(6-Methoxynicotinoyl)-N,N,5-trimethyl-6H-thieno[2,3-b]pyrrole-6-sulfonamide], the concentration giving a half-maximal response (EC50) at human CB2 receptors and on human CB2 (hCB2) was under 100 nM throughout. Also, the “hCB1 EC50 (cAMP ag, nM)” value at human CB1 receptors was “NS (NS means “Not Significant,” which means less than 30% agonist activity when compared to the positive control.)”. Also, the IC50 in assay [1] is under 100 nM.
In the case of `COc1ccc(C(=O)c2cc3cc(C)n(Cc4ccccc4)c3s2)c(Cl)c1` [Compound 114, (6-Benzyl-5-methyl-6H-thieno[2,3-b]pyrrol-2-yl)(2-chloro-4-methoxyphenyl)methanone], the concentration for a half-maximal effect (EC50) was 1000 to 10000 nM on human CB2 receptors (inhibition of forskolin-stimulated cAMP, HEK-293 cells, read-out: hCB2 EC50 (cAMP ag)); 1000 to 10000 nM on human CB1 receptors; under 100 nM on human CB2 (hCB2) (GTPγS agonist, HEK-293 membranes, read-out: hCB2 EC50 (GTPyS ag)). The IC50 in assay [1] was under 100 nM.
`CSc1ccc(C(=O)c2cc3cc(C)n(CCN4CCOCC4)c3s2)cc1` [Compound 115, (5-Methyl-6-(2-morpholinoethyl)-6H-thieno[2,3-b]pyrrol-2-yl)(4-(methylthio)phenyl)methanone]: the concentration for a half-maximal effect (EC50) at human CB2 receptors and on human CB2 (hCB2) was 100 to 1000 nM throughout. Also, the “hCB1 EC50 (cAMP ag, nM)” value at human CB1 receptors is “NS (NS means “Not Significant,” which means less than 30% agonist activity when compared to the positive control.)”. Further, in assay [1], the IC50 was 100 to 1000 nM.
As to `COc1ccc(C(=O)c2cc3cc(C)n(CCN4CCOCC4)c3s2)cc1Cl` [Compound 116, (3-Chloro-4-methoxyphenyl)(5-methyl-6-(2-morpholinoethyl)-6H-thieno[2,3-b]pyrrol-2-yl)methanone], the 50% effective concentration (EC50) on human CB2 receptors and at human CB2 (hCB2) was under 100 nM each time. Moreover, the “hCB1 EC50 (cAMP ag, nM)” value at human CB1 receptors is given as “NS (NS means “Not Significant,” which means less than 30% agonist activity when compared to the positive control.)”. Further, the half-maximal inhibitory concentration (IC50) in assay [1] lay in the range of 100 to 1000 nM.
In the case of `COc1ccc(C(=O)c2cc3cc(C)n(CCN4CCCCC4)c3s2)cn1` [Compound 117, (6-Methoxypyridin-3-yl)(5-methyl-6-(2-(piperidin-1-yl)ethyl)-6H-thieno[2,3-b]pyrrol-2-yl)methanone], the concentration for a half-maximal effect (EC50) at human CB2 receptors and on human CB2 (hCB2) was under 100 nM in each case. In addition, the “hCB1 EC50 (cAMP ag, nM)” value on human CB1 receptors is recorded as “NS (NS means “Not Significant,” which means less than 30% agonist activity when compared to the positive control.)”. Besides, the half-inhibitory concentration (IC50) in assay [1] lay within 100 to 1000 nM.
Regarding `CCc1ccc(C(=O)c2cc3cc(C)n(CCN4CCOCC4)c3s2)cc1` [Compound 122, (4-Ethylphenyl)(5-methyl-6-(2-morpholinoethyl)-6H-thieno[2,3-b]pyrrol-2-yl)methanone], the EC50 was under 100 nM on human CB2 receptors, 1000 to 10000 nM on human CB1 receptors and under 100 nM at human CB2 (hCB2). Moreover, the IC50 in assay [1] was under 100 nM.
With `Cc1cc2cc(C(=O)c3cccc(Cl)n3)sc2n1CCN1CCOCC1` [Compound 123, (6-Chloropyridin-2-yl)(5-methyl-6-(2-morpholinoethyl)-6H-thieno[2,3-b]pyrrol-2-yl)methanone], the 50% effective concentration (EC50) on human CB2 receptors was under 100 nM; on human CB2 (hCB2), 100 to 1000 nM. Besides, the “hCB1 EC50 (cAMP ag, nM)” value on human CB1 receptors is recorded as “NS (NS means “Not Significant,” which means less than 30% agonist activity when compared to the positive control.)”. In assay [1], the concentration for half-maximal inhibition (IC50) lay within 100 to 1000 nM.
As to `Cc1ccc(C(=O)c2cc3cc(C)n(CCN4CCOCC4)c3s2)cc1` [Compound 124, (5-Methyl-6-(2-morpholinoethyl)-6H-thieno[2,3-b]pyrrol-2-yl)(p-tolyl)methanone], the values for the 50% effective concentration (EC50) at human CB2 receptors, on human CB1 receptors and on human CB2 (hCB2) were under 100 nM, 1000 to 10000 nM and under 100 nM, respectively. The IC50 in assay [1] was 100 to 1000 nM.
In the case of `Cc1ccc(C(O)c2cc3cc(C)n(CCN4CCOCC4)c3s2)cn1` (stereo not shown) [Compound 125, (5-Methyl-6-(2-morpholinoethyl)-6H-thieno[2,3-b]pyrrol-2-yl)(6-methylpyridin-3-yl)methanol], the EC50 on human CB2 receptors and at human CB2 (hCB2) was 100 to 1000 nM in each case. Moreover, the “hCB1 EC50 (cAMP ag, nM)” value on human CB1 receptors is recorded as “NS (NS means “Not Significant,” which means less than 30% agonist activity when compared to the positive control.)”. In assay [1], the IC50 is over 10000 nM.
In the case of `COc1cc(F)c(C(=O)c2cc3cc(C)n(CCN4CCOCC4)c3s2)c(F)c1` [Compound 127, (2,6-difluoro-4-methoxyphenyl)(5-methyl-6-(2-morpholinoethyl)-6H-thieno[2,3-b]pyrrol-2-yl)methanone], the 50% effective concentration (EC50) on human CB2 receptors was under 100 nM; on human CB1 receptors it was 1000 to 10000 nM; on human CB2 (hCB2), under 100 nM. In addition, the IC50 in assay [1] is under 100 nM.
For the compound `Cc1ccc(C(=O)c2cc3cc(C)n(CCN4CCOCC4)c3s2)cn1` [Compound 130, (5-methyl-6-(2-morpholinoethyl)-6H-thieno[2,3-b]pyrrol-2-yl)(6-methylpyridin-3-yl)methanone], the EC50 on human CB2 receptors and on human CB2 (hCB2) was 100 to 1000 nM throughout. Also, at human CB1 receptors, the “hCB1 EC50 (cAMP ag, nM)” value was “NS (NS means “Not Significant,” which means less than 30% agonist activity when compared to the positive control.)”. The IC50 in assay [1] lay within 1000 to 10000 nM.
In the case of `COc1ccc(C(=O)c2cc3cc(C)n(CCN4CCOCC4)c3s2)nc1` [Compound 131, (5-methoxypyridin-2-yl)(5-methyl-6-(2-morpholinoethyl)-6H-thieno[2,3-b]pyrrol-2-yl)methanone], the EC50 at human CB2 receptors and on human CB2 (hCB2) was under 100 nM in each case. Also, on human CB1 receptors, the “hCB1 EC50 (cAMP ag, nM)” value was “NS (NS means “Not Significant,” which means less than 30% agonist activity when compared to the positive control.)”. In addition, the IC50 in assay [1] is 100 to 1000 nM.
Turning to `Cc1cc2cc(C(=O)c3ccc(N(C)C(=O)OC(C)(C)C)cc3)sc2n1CCN1CCOCC1` [Compound 132, tert-butylmethyl(4-(5-methyl-6-(2-morpholinoethyl)-6H-thieno[2,3-b]pyrrole-2-carbonyl)phenyl)carbamate], the half-maximal effective concentration (EC50) at human CB2 receptors and on human CB2 (hCB2) was 100 to 1000 nM each time. Also, on human CB1 receptors, the “hCB1 EC50 (cAMP ag, nM)” value is “NS (NS means “Not Significant,” which means less than 30% agonist activity when compared to the positive control.)”. The IC50 in assay [1] fell in the range of 1000 to 10000 nM.
`CNc1ccc(C(=O)c2cc3cc(C)n(CCN4CCOCC4)c3s2)cc1` [Compound 134, (5-methyl-6-(2-morpholinoethyl)-6H-thieno[2,3-b]pyrrol-2-yl)(4-(methylamino)phenyl)methanone]: the EC50 is under 100 nM at human CB2 receptors and 100 to 1000 nM on human CB2 (hCB2). Also, the “hCB1 EC50 (cAMP ag, nM)” value at human CB1 receptors is listed as “NS (NS means “Not Significant,” which means less than 30% agonist activity when compared to the positive control.)”. Also, the IC50 in assay [1] lay in the range of 100 to 1000 nM.
With `COc1ccc(C(=O)c2cc3cc(C)n(CCN4CCOCC4)c3s2)c(Cl)n1` [Compound 137, (2-chloro-6-methoxypyridinyl-3-yl)(5-methyl-6-(2-morpholinoethyl)-6H-thieno[2,3-b]pyrrol-2-yl)methanone], the EC50 on human CB2 receptors was under 100 nM; at human CB1 receptors it was 100 to 1000 nM; at human CB2 (hCB2), under 100 nM. Moreover, in assay [1], the half-maximal inhibitory concentration (IC50) is under 100 nM.
For `COc1ccc(C(=O)c2cc3c(Cl)c(C)n(CCN4CCOCC4)c3s2)cc1` [Compound 140, (4-chloro-5-methyl-6-(2-morpholinoethyl)-6H-thieno[2,3-b]pyrrol-2-yl)(4-methoxyphenyl)methanone], the 50% effective concentration (EC50) at human CB2 receptors and on human CB2 (hCB2) was under 100 nM in each case. For the same compound, the “hCB1 EC50 (cAMP ag, nM)” value on human CB1 receptors is given as “NS (NS means “Not Significant,” which means less than 30% agonist activity when compared to the positive control.)”. The half-maximal inhibitory concentration (IC50) in assay [1] fell in the range of 100 to 1000 nM.
In the case of `CCN(CC)CCn1c(C)cc2cc(C(=O)c3ccc(OC)nc3)sc21` [Compound 142, (6-(2-(diethylamino)ethyl)-5-methyl-6H-thieno[2,3-b]pyrrol-2-yl)(6-methoxypyridin-3-yl)methanone], the EC50 on human CB2 receptors and at human CB2 (hCB2) was 100 to 1000 nM throughout. Moreover, on human CB1 receptors, the “hCB1 EC50 (cAMP ag, nM)” value is recorded as “NS (NS means “Not Significant,” which means less than 30% agonist activity when compared to the positive control.)”. Moreover, in assay [1], the IC50 fell in the range of 1000 to 10000 nM.

A word on the EC50: it is the midpoint of the concentration-response curve. A word on the IC50: it is the concentration needed to halve the response being measured.
